Results as given in US20230124862A1, “BISMUTH THIOL COMPOUNDS AND COMPOSITIONS AND METHODS OF TREATING MICROBIAL CO-INFECTIONS” (Microbion Corporation, priority 2020, published 2023).
Values after ≈ are worked out from the molar mass of the structure shown. Values joined by “and” are separate entries in the source; they are usually repeats but may differ in a detail not shown here. Equal values may be shown once. Read-outs that look alike come from different tables or passages of the source.

Key:
[1] = test system: P. aeruginosa; assay: Checkerboard FIC/FICI assay; type: cell-based, Pseudomonas aeruginosa; conditions: for FICB / MICB: Amikacin in combination with BisEDT
[2] = test system: Achromobacter spp.; assay: MIC testing of CF isolates; type: cell-based; conditions: strain AX4, A. xylosoxidans; read-out: MIC
[3] = test system: E. coli ATCC 25922; conditions: control strain ATCC 25922; cited from earlier work
[4] = test system: B. cenocepacia; assay: MIC testing of CF isolates; type: cell-based, Burkholderia cenocepacia
[5] = test system: Burkholderia cepacia complex; assay: Checkerboard FIC/FICI assay; type: cell-based, Burkholderia spp.; conditions: for MICB: MIC of Amikacin (Drug B) in combination with BisEDT
[6] = test system: B. multivorans; assay: MIC testing of CF isolates; type: cell-based, Burkholderia multivorans; conditions: Burkholderia multivorans; strain BC5b; read-out: MIC
[7] = test system: S. aureus ATCC 29213; conditions: control strain ATCC 29213; cited from earlier work
[8] = test system: B. cepacia; assay: MIC testing of CF isolates; type: cell-based, Burkholderia cepacia; conditions: Burkholderia cepacia; strain BC17; read-out: MIC
[9] = test system: S. maltophilia; assay: MIC testing of CF isolates; type: cell-based, Stenotrophomonas maltophilia; conditions: strain SM21
[10] = test system: Gram-negative organisms (P. aeruginosa, E. coli, A. baumannii, H. influenzae); assay: Broth microdilution MIC with pulmonary surfactant (Survanta); type: cell-based
[11] = test system: Gram-negative organisms (P. aeruginosa, E. coli, A. baumannii, H. influenzae); conditions: P. aeruginosa ATCC 27853; cited from earlier work
[12] = test system: Haemophilus influenzae; conditions: H. influenzae MMX 1224 (ATCC 49247), cited from earlier work
[13] = test system: Haemophilus influenzae; assay: Broth microdilution MIC, Haemophilus influenzae clinical isolates; type: cell-based
[14] = P. aeruginosa 6322, one value per panel row D-G
[15] = P. aeruginosa 6977, by checkerboard
[16] = P. aeruginosa 7745, by checkerboard
[17] = H. influenzae MMX 1224 (ATCC 49247)

Question: What does the source list for `NCC[C@H](O)C(=O)N[C@@H]1C[C@H](N)[C@@H](O[C@H]2O[C@H](CN)[C@@H](O)[C@H](O)[C@H]2O)[C@H](O)[C@H]1O[C@H]1O[C@H](CO)[C@@H](O)[C@H](N)[C@H]1O` [Amikacin, reference compound]?
Answer: FICB [1, 14]: […]; MICB [1, 14]: 128 µg/mL; FICB [1, 15]: […]; MICB [1, 15]: […]; FICB [1, 16]: […]; MICB [1, 16]: 4 µg/mL; MIC ([1]; Pseudomonas aeruginosa, P. aeruginosa 6977, Amikacin alone (checkerboard with BisEDT), read-out: Drug B MIC): 16 µg/mL; MIC [2]: > 64 µg/mL; Expected MIC: goal (acceptable range) [3]: 1 to 2 µg/mL; MIC ([4]; Burkholderia cenocepacia, strain BC15, read-out: MIC): > 64 µg/mL; MIC ([4]; strain AU197): >64 µg/mL; FICB ([5]; B. cenocepacia 548, FIC of Amikacin (Drug B) in combination with BisEDT): […]; MICB ([5]; B. cenocepacia 548): […]; FICB ([5]; B. cenocepacia 813, FIC of Amikacin (Drug B) in combination with BisEDT): […]; MICB ([5]; B. cenocepacia 813): […]; FICB ([5]; B. cepacia 546, Amikacin in combination with BisEDT, by checkerboard, Table 60): […]; FICB ([5]; B. cepacia 1793, FIC of Amikacin (Drug B) in combination with BisEDT): […]; MICB ([5]; B. cepacia 1793): […]; FICB ([5]; B. multivorans 1795, FIC of Amikacin (Drug B) in combination with BisEDT): […]; MICB ([5]; B. multivorans 1795): […]; MIC [6]: > 64 µg/mL; Expected MIC: goal (acceptable range) [7]: 2 µg/mL; MIC [8]: > 64 µg/mL; MIC [9]: 64 µg/mL (≈ 109 µM)

Question: With `C[C@@H](O)[C@H]1C(=O)N2C(C(=O)O)=C(SCCN=CN)C[C@H]12` [Imspenem] as the compound, how does the MIC ([10]; A. baumanuii CSC 0288, 0 percent Survanta) read?
Answer: 16 µg/mL (≈ 53.4 µM)

Question: What about the MIC ([10]; A. baumanuii CSC 0288, 1 percent Survanta) of the same compound?
Answer: 16 µg/mL (≈ 53.4 µM)

Question: And the MIC ([10]; A. baumanuii CSC 0288, 2.5 percent Survanta)?
Answer: 16 µg/mL (≈ 53.4 µM)

Question: What about the MIC ([10]; A. baumanuii CSC 0288, 5 percent Survanta) of the same compound?
Answer: 16 µg/mL (≈ 53.4 µM)

Question: And the MIC ([10]; B. cepucia MMX9040, 0 percent Survanta)?
Answer: 8 µg/mL (≈ 26.7 µM)

Question: And the MIC ([10]; B. cepucia MMX9040, 1 percent Survanta)?
Answer: 8 µg/mL (≈ 26.7 µM)

Question: What about the MIC ([10]; B. cepucia MMX9040, 2.5 percent Survanta) of the same compound?
Answer: 8 µg/mL (≈ 26.7 µM)

Question: And the MIC ([10]; B. cepucia MMX9040, 5 percent Survanta)?
Answer: 8 µg/mL (≈ 26.7 µM)

Question: And the MIC ([10]; B. cepucia MMX9040, 10 percent Survanta)?
Answer: 8 µg/mL (≈ 26.7 µM)

Question: And the MIC ([10]; H. Influenzae ATCC 49247, 0 percent Survanta)?
Answer: 0.5 µg/mL (≈ 1.67 µM)

Question: What about the MIC ([10]; H. Influenzae ATCC 49247, 1 percent Survanta) of the same compound?
Answer: 0.5 µg/mL (≈ 1.67 µM)

Question: What about the MIC ([10]; H. Influenzae ATCC 49247, 2.5 percent Survanta) of the same compound?
Answer: 0.5 µg/mL (≈ 1.67 µM)

Question: And the MIC ([10]; H. Influenzae MMX 2795, 0 percent Survanta)?
Answer: 1 µg/mL (≈ 3.34 µM)

Question: And the MIC ([10]; P. aeruginosa ATCC 27853, 0 percent Survanta)?
Answer: 2 µg/mL (≈ 6.68 µM)

Question: What about the MIC ([10]; P. aeruginosa ATCC 27853, 1 percent Survanta) of the same compound?
Answer: 2 µg/mL (≈ 6.68 µM)

Question: What about the MIC ([10]; P. aeruginosa ATCC 27853, 2.5 percent Survanta) of the same compound?
Answer: 2 µg/mL (≈ 6.68 µM)

Question: What about the MIC ([10]; P. aeruginosa ATCC 27853, 5 percent Survanta) of the same compound?
Answer: 2 µg/mL (≈ 6.68 µM)

Question: And the MIC ([10]; P. aeruginosa ATCC 27853, 10 percent Survanta)?
Answer: 2 µg/mL (≈ 6.68 µM)

Question: What about the MIC ([10]; P. aeruginosa CDC 0444, 0 percent Survanta) of the same compound?
Answer: >16 µg/mL

Question: What about the MIC ([10]; P. aeruginosa CDC 0444, 1 percent Survanta) of the same compound?
Answer: >16 µg/mL

Question: What about the MIC ([10]; P. aeruginosa CDC 0444, 2.5 percent Survanta) of the same compound?
Answer: >16 µg/mL

Question: What about the MIC ([10]; P. aeruginosa CDC 0444, 5 percent Survanta) of the same compound?
Answer: >16 µg/mL

Question: What about the MIC ([10]; P. aeruginosa CDC 0444, 10 percent Survanta) of the same compound?
Answer: >16 µg/mL

Question: And the “CLSI acceptable MIC QC range” value [11]?
Answer: 1 to 4 µg/mL

Question: For `C[C@H]1COc2c(N3CCN(C)CC3)c(F)cc3c(=O)c(C(=O)O)cn1c23` [LEV], which “CLSI Quality Control Range (MIC)” value [12] is on record?
Answer: (0.008-0.03)

Question: And the MIC ([13]; H. influenzae MMX 0797, BLNAR)?
Answer: 0.015 µg/mL (≈ 0.0415 µM)

Question: And the MIC [13, 17]?
Answer: 0.015 µg/mL (≈ 0.0415 µM)

Question: What about the MIC ([13]; H. influenzae MMX 1302) of the same compound?
Answer: 0.015 µg/mL (≈ 0.0415 µM)

Question: And the MIC ([13]; H. influenzae MMX 1304)?
Answer: 0.015 µg/mL (≈ 0.0415 µM)

Question: And the MIC ([13]; H. influenzae MMX 1740)?
Answer: 0.015 µg/mL (≈ 0.0415 µM)

Question: And the MIC ([13]; H. influenzae MMX 1741)?
Answer: 0.015 µg/mL (≈ 0.0415 µM)

Question: And the MIC ([13]; H. influenzae MMX 2795, BLNAR)?
Answer: 0.015 µg/mL (≈ 0.0415 µM)

Question: What about the MIC ([13]; H. influenzae MMX 2796, BLNAR) of the same compound?
Answer: 0.015 µg/mL (≈ 0.0415 µM)

Question: And the MIC ([13]; H. influenzae MMX 2798, BLNAR)?
Answer: 0.015 µg/mL (≈ 0.0415 µM)

Question: What about the MIC ([13]; H. influenzae MMX 2799, BLNAR) of the same compound?
Answer: 0.015 µg/mL (≈ 0.0415 µM)

Question: And the MIC ([13]; H. influenzae MMX 5458)?
Answer: 0.015 µg/mL (≈ 0.0415 µM)

Question: What about the MIC ([13]; H. influenzae MMX 5461) of the same compound?
Answer: 0.03 µg/mL (≈ 0.083 µM)

Question: And the MIC ([13]; H. influenzae MMX 5469)?
Answer: 0.015 µg/mL (≈ 0.0415 µM)

Question: And the MIC ([13]; H. influenzae MMX 5494)?
Answer: 0.015 µg/mL (≈ 0.0415 µM)

Question: What about the MIC ([13]; H. influenzae MMX 5495) of the same compound?
Answer: 0.015 µg/mL (≈ 0.0415 µM)

Question: What about the MIC ([13]; H. influenzae MMX 5499) of the same compound?
Answer: 0.015 µg/mL (≈ 0.0415 µM)

Question: Which results are given for `CC[C@H]1OC(=O)[C@H](C)[C@@H](O[C@H]2C[C@@](C)(OC)[C@@H](O)[C@H](C)O2)[C@H](C)[C@@H](O[C@@H]2O[C@H](C)C[C@H](N(C)C)[C@H]2O)[C@](C)(O)C[C@@H](C)CN(C)[C@H](C)[C@@H](O)[C@]1(C)O` [AZM]?
Answer: CLSI Quality Control Range (MIC) ([12]; in µg/mL): 1-4; MIC ([13]; H. influenzae MMX 0797, BLNAR): 2 µg/mL (≈ 2.67 µM); MIC [13, 17]: 2 µg/mL (≈ 2.67 µM); MIC ([13]; H. influenzae MMX 1302): 2 µg/mL (≈ 2.67 µM); MIC ([13]; H. influenzae MMX 1304): 2 µg/mL (≈ 2.67 µM); MIC ([13]; H. influenzae MMX 1740): 4 µg/mL (≈ 5.34 µM); MIC ([13]; H. influenzae MMX 1741): 1 µg/mL (≈ 1.34 µM); MIC ([13]; H. influenzae MMX 2795, BLNAR): 2 µg/mL (≈ 2.67 µM); MIC ([13]; H. influenzae MMX 2796, BLNAR): 2 µg/mL (≈ 2.67 µM); MIC ([13]; H. influenzae MMX 2798, BLNAR): 0.5 µg/mL (≈ 0.668 µM); MIC ([13]; H. influenzae MMX 2799, BLNAR): 0.5 µg/mL (≈ 0.668 µM); MIC ([13]; H. influenzae MMX 5458): 1 µg/mL (≈ 1.34 µM); MIC ([13]; H. influenzae MMX 5461): 2 µg/mL (≈ 2.67 µM); MIC ([13]; H. influenzae MMX 5469): 2 µg/mL (≈ 2.67 µM); MIC ([13]; H. influenzae MMX 5494): 1 µg/mL (≈ 1.34 µM); MIC ([13]; H. influenzae MMX 5495): 0.5 µg/mL (≈ 0.668 µM); MIC ([13]; H. influenzae MMX 5499): 2 µg/mL (≈ 2.67 µM)
